Type in all cases: cell-based
Experiment [1] has as its system VISA-5836. Kind of experiment: MIC against VISA strain. Conditions: Staphylococcus aureus. As for the experimental part: (§1) Stock solutions of compounds are prepared with a concentration of 10 mg/mL. These solutions are then diluted 1:4 to give a concentration of 2.5 mg/mL. The compounds are then serially diluted 1:2 for 6 iterations. The concentrations made for each compound are 2.5, 1.25, 0.625, 0.3125, 0.156, 0.078, and 0.039 mg/mL. A control sample (no compound) is run along with each compound tested. All dilutions are made in DMSO.
(§2) All wells of a 96 well microtiter plate are filled with 100 μL of BHI (Brain-Heart Infusion) broth. Columns on the plate are labeled 1-12, and rows are labeled A-H. Each column of wells is used to test one series of diluted compounds. Into each well of 100 μL of BHI broth, 1 μL of diluted compound is placed for a 1:100 dilution. This makes the final concentration of each drug series 25, 12.5, 6.25, 3.125, 1.56, 0.78, 0.39, and 0 μg/mL.
(§3) Test Organism: A sterile 15 mL screw cap tube is filled wth 3 mL of BHI broth. Next, 2-3 colonies of test organism are inoculated into the tube. The tube is then incubated at 37° C. in a CO2 (approx. 7%) atmosphere jar. The organisms are allowed to grow to the density of a 0.5 McFarland standard (10^8 cells/mL). The organism is then inoculated into each well of the microtiter plate containing the diluted compounds to be tested for MIC. The inoculum is 1 μL in volume and represents 10^5 to 10^6 cells/mL.
(§4) After inoculation the plates are covered and incubated at 37° C. and approx. 7-10% CO2 atmosphere overnight (about 16 hours). The plates are then observed for growth, the well with the lowest concentration of drug and no observable growth represents the well determining the MIC.

Experiment [2] deals with VISA-5827. Kind of experiment: MIC against VISA strain. Conditions: Staphylococcus aureus. As for the experimental part: as §1, §2, §3, §4
Experiment [3] relates to methicillin-resistant Staphylococcus aureus (MRSA). Kind of experiment: Determination of MIC values (BHI broth, 96 well microtiter plate). Conditions: Staphylococcus aureus, MRSA; read-out: MIC MRSA. The method, boiled down: (§5)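 Broth microdilution in Brain-Heart Infusion with twofold dilution series from 25 µg/mL final and a no-compound control. Overnight incubation at 37° C in a CO2 atmosphere; visual growth endpoint gives the MIC.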

Experiment [4] concerns S. aureus (ATCC 29213). Briefly: MIC against S. aureus strain. Conditions: Staphylococcus aureus, ATCC29213. The protocol: as §1, §2, §3, §4
Experiment [5] relates to S. aureus (ATCC 33591). Briefly: MIC against S. aureus strain. Conditions: Staphylococcus aureus, ATCC33591. As for the experimental part:
as §1, §2, §3, §4

The subject of experiment [6] is S. aureus (ATCC 33592). Kind of experiment: MIC against S. aureus strain. Conditions: Staphylococcus aureus, ATCC33592. The protocol: as §1, §2, §3, §4
Experiment [7] deals with S. aureus (ATCC 25923). Briefly: MIC against S. aureus strain. Conditions: Staphylococcus aureus, ATCC25923. As for the experimental part:
as §1, §2, §3, §4

Experiment [8] concerns S. aureus 8325-4. Briefly: Lytic response (culture turbidity 600 nm) in MH broth. Conditions: added at 5×, 10×, and 20×MIC to early log phase cultures. As for the experimental part: Activities of the quinoline-indoles and comparator agents were determined against MSSA (n=32), MRSA (n=31) and VISA (n=7). Susceptibility testing on MH agar was performed using an inoculum of 10^6 c.f.u. Bactericidal, lytic and PAEs were determined on S. aureus 8325-4 in MH broth. Samples were removed for viable numbers on MH agar (for bactericidal response) and culture turbidity (600 nm) (for lytic response). PAEs were determined by a broth dilution method following exposure of bacteria to drugs at 5×MIC for 60 min.
The effects of the quinoline-indoles, and ciprofloxacin and rifampin (controls) on the integrity of S. aureus 8325-4 were examined following addition at 5×, 10×, and 20×MIC to early log phase cultures.
The lysis experiments were performed using classical “time kill-curve” methodology. See V. Lorian, Antibiotics in Laboratory Medicine, 4th ed., Chapter 2; Williams & Wilkins, Baltimore, 1996 (ISBN 0-683-05169-5). Bacteria (e.g., S. aureus) are exposed in liquid culture (early log phase approx […]) to multiples (typically 2×, 5×, 10×, and 20×) of the single cell agar MIC. Drug-free controls are also included. […] The samples are diluted in fresh drug-free medium and aliquots from a range of dilutions spread onto drug-free agar plates and those giving 30-300 colony forming units/plate are counted for quantification of survivors versus time of drug exposure. […]

For experiment [9], the system named is ciprofloxacin-resistant Staphylococcus aureus (CRSA). Kind of experiment: Determination of MIC values (BHI broth, 96 well microtiter plate). Conditions: MRSA, cells marked [CRSA], overnight 37° C., read-out: MIC [CRSA] (printed in MRSA column). The method in brief:
as §5

The test system of experiment [10] is vancomycin-resistant Enterococcus spp. (VRE). Described as above. Conditions: Enterococcus, VRE, VREF; BHI broth, overnight 37° C.; read-out: MIC VREF. The method, boiled down: as §5
Experiment [11] has as its system Streptococcus pneumoniae. The experiment is described as above. Conditions: Streptococcus pneumoniae; S. pneu; BHI broth, overnight 37° C.; read-out: MIC S. pneu. The method, boiled down: as §5

On to `OCc1cc(-c2c[nH]c3ccc(Br)cc23)nc2cc(F)ccc12` [compound 7], for which the MIC in experiment [1], in experiment [2] and in experiment [3] was < 7 µg/mL each time.

As to `COc1ccc(NC(=O)c2cc(-c3c[nH]c4ccc(Br)cc34)nc3ccc(C#CCN4CCCCC4)cc23)cc1` [compound 3], the MIC in experiment [1], in experiment [2] and in [3] was < 7 µg/mL in each case.

As for `NCc1cc(-c2c[nH]c3ccc(Br)cc23)nc2cc(Cl)ccc12` [compound 8], the MIC in experiment [1], in experiment [2] and in experiment [3] was < 7 µg/mL each time.

Regarding `NCc1ccc(CNC(=O)c2cc(-c3c[nH]c4ccc(Br)cc34)nc3ccc(C#CCN4CCCCC4)cc23)cc1` [compound 1], the minimal inhibitory concentration (MIC) in experiment [4], in experiment [5], in [6] and in experiment [7] was < 7 µg/mL in each case.

For `NCc1ccc(CNC(=O)c2cc(-c3c[nH]c4ccc(Br)cc34)nc3ccccc23)cc1` [compound 1], the MIC in experiment [1], in experiment [2] and in [3] was < 7 µg/mL in each case.

Consider `CC(C)CNC(=O)c1cc(-c2c[nH]c3ccc(Br)cc23)nc2ccc(C#CCN3CCCCC3)cc12` [compound 9], for which the MIC in experiment [4] is < 7 µg/mL; in experiment [5], < 7 µg/mL; in experiment [6] it was > 25 µg/mL; in [7], < 25 µg/mL.

Take `O=C(O)c1cn(C2CC2)c2cc(N3CCNCC3)c(F)cc2c1=O` [ciprofloxacin]: the “bactericidal mechanism of action (lytic versus non-lytic)” value in experiment [8] is “non-lytic”.

As to `Brc1ccc2[nH]cc(-c3nc4ccc(C#CCN5CCCCC5)cc4c4c3CCO4)c2c1` [compound 9], the minimal inhibitory concentration (MIC) in experiment [1], in experiment [2] and in experiment [3] was < 7 µg/mL each time.

Regarding `OCc1cc(-c2c[nH]c3ccc(Br)cc23)nc2cc(F)ccc12` [compound 6], the MIC in experiment [4], in experiment [5], in experiment [6] and in experiment [7] was < 7 µg/mL in each case.

Turning to `Cn1cc(-c2cc(C(=O)NCCN)c3ccc(I)cc3n2)c2cc(Br)ccc21` [Example 329], the minimum inhibitory concentration (MIC) in experiment [9], in experiment [10] and in experiment [11] was < 7 µg/mL throughout.

As for `COc1ccc(NC(=O)c2cc(-c3c[nH]c4ccc(Br)cc34)nc3ccc(C#CCN4CCCCC4)cc23)cc1` [compound 2], the MIC in experiment [4], in experiment [5], in experiment [6] and in experiment [7] was < 7 µg/mL each time.

In the case of `NCc1ccc(CNC(=O)c2cc(-c3c[nH]c4ccc(Br)cc34)nc3ccc(C#CCN4CCCCC4)cc23)cc1` [compound 2], the MIC in experiment [1], in experiment [2] and in [3] was < 7 µg/mL in each case.

Consider `COC(=O)c1cc(-c2c[nH]c3ccc(Br)cc23)nc2cc(F)ccc12` [compound 4], for which the MIC in experiment [1], in [2] and in experiment [3] was < 7 µg/mL each time.

As for `Cn1cc(-c2cc(C(=O)NCc3ccc(CN)cc3)c3ccc(F)cc3n2)c2cc(Br)ccc21` [Example 323], the MIC in [9] was < 7 µg/mL; in experiment [10], < 25 µg/mL; in experiment [11], < 7 µg/mL.

In the case of `Brc1ccc2[nH]cc(-c3nc4ccc(C#CCN5CCCCC5)cc4c4c3CCO4)c2c1` [compound 8], the MIC in experiment [4], in [5], in [6] and in [7] was < 7 µg/mL in each case.

As to `COc1ccc2nc(-c3c[nH]c4ccc(Cl)cc34)ccc2c1` [compound 5], the MIC in [4], in [5], in experiment [6] and in experiment [7] was < 7 µg/mL throughout.

Consider `CN(CC[N+](C)(C)C)C(=O)c1cc(-c2c[nH]c3ccc(Br)cc23)nc2cc(Cl)ccc12` [compound 10], for which the MIC in experiment [1], in [2], in [3], in experiment [4], in experiment [5] and in [6] was < 7 µg/mL each time. For the same compound, in experiment [7], the minimal inhibitory concentration (MIC) is < 7 µg/mL.

For `NCCNC(=O)c1cc(-c2c[nH]c3ccc(Br)cc23)nc2ccc(Cl)cc12` [Example 286], the minimum inhibitory concentration (MIC) in experiment [9], in experiment [10] and in [11] was < 7 µg/mL throughout.

Turning to `COC(=O)c1cc(-c2c[nH]c3ccc(Br)cc23)nc2cc(F)ccc12` [compound 3], the MIC in [4], in experiment [5], in [6] and in experiment [7] was < 7 µg/mL throughout.

`NCc1cc(-c2c[nH]c3ccc(Br)cc23)nc2cc(Cl)ccc12` [compound 7]: the MIC in experiment [4], in [5], in experiment [6] and in [7] was < 7 µg/mL each time.

Regarding `CCOC(=O)n1cc(-c2cc(C(=O)NCc3cccc(CN)c3)c3cc(I)ccc3n2)c2cc(Br)ccc21` [Example 324], the minimal inhibitory concentration (MIC) in experiment [9], in experiment [10] and in experiment [11] was > 25 µg/mL each time.

With `COc1ccc2nc(-c3c[nH]c4ccc(Cl)cc34)ccc2c1` [compound 6], the minimal inhibitory concentration (MIC) in experiment [1], in experiment [2] and in experiment [3] was < 7 µg/mL throughout.

Turning to `NCCNC(=O)c1cc(-c2c[nH]c3ccc(Br)cc23)nc2cc(Cl)c(C#CCN3CCCCC3)cc12` [compound 4], the MIC in experiment [4], in [5], in [6] and in [7] was < 7 µg/mL in each case.

In the case of `NCCNC(=O)c1cc(-c2c[nH]c3ccc(Br)cc23)nc2cc(Cl)c(C#CCN3CCCCC3)cc12` [compound 5], the MIC in experiment [1], in experiment [2] and in experiment [3] was < 7 µg/mL in each case.

Regarding `NCc1ccc(CNC(=O)c2cc(-c3c[nH]c4ccc(Br)cc34)nc3ccccc23)cc1` [Example 284], in [9], the MIC was < 7 µg/mL.

For the compound `NCCNC(=O)c1cc(-c2c[nH]c3ccc(Br)cc23)nc2c(I)cccc12` [Example 320], the MIC in experiment [9], in experiment [10] and in [11] was < 7 µg/mL each time.

Turning to `NCCNC(=O)c1cc(-c2c[nH]c3ccc(Br)cc23)nc2cc(I)ccc12` [Example 296], the MIC in [9], in experiment [10] and in experiment [11] was < 7 µg/mL in each case.

By MIC is commonly meant the lowest concentration that inhibits growth of the organism.

Values taken from patent publication US6376670B1, “Quinoline-indole antimicrobial agents, uses and compositions related thereto” (Sepracor Inc., priority 1997, dated 2002).
